These are literature values, as cited in patent EP4066850A2, “PEPTIDES AND METHODS OF TREATING DYSTROPHY-RELATED DISORDERS USING THE SAME” (Bioincept LLC, priority 2017, dated 2018).

Each structure is given as a SMILES string.

The conditions of this series: IV infusion together with radiation; xerostomia treatment (Kouvaria et al 2007).

For `NCCCNCCSP(=O)(O)O` [Amifostine], the side effects entry was “serious side effects including fatal skin reaction”.
